Source: patent publication US8759301B2, “Gene fusion targeted therapy” (The Regents of The University of Michigan, priority 2010, dated 2014)
Positions count from the first letter of the chain named. Like-named read-outs stand apart in the source and are kept apart here. Where a SMILES comes first, the peptide text is derived from it.

How the values were obtained:
[1] = system: TMPRSS2-ERG and wild-type ERG transcripts; format: cell-based
Procedure: All PCR experiments were performed in triplicates.

VCaP [2] = assay: DNA damage in VCaP with TAT peptides; format: cell-based; conditions: FIG. 42
DU145 = assay: Cell invasion with TAT-peptides, DU145; format: cell-based; conditions: FIG. 39
From the text: (§1) Invaded cells were stained with crystal violet and photographed.

VCaP [3] = assay: Cell proliferation with TAT-peptide, VCaP; format: cell-based; conditions: FIG. 40
From the text: Standard cell proliferation and apoptosis assays (Chinnaiyan et al., Cell, 1995. 81(4): p. 505-12; Chinnaiyan et al., Proc Natl Acad Sci USA, 2000. 97(4): p. 1754-9; Varambally et al., Nature, 2002. 419(6907): p. 624-9) are used to assess the inhibitory role of peptides in prostate cell proliferation driven by TMPRSS2:ETS fusions, using both the over-expression series and stable-knockdown series.

VCaP [4] = system: VCaP
Procedure: (§2) Briefly, equal numbers of the indicated cells were seeded onto the basement membrane matrix (EC matrix, Chemicon) present in the insert of a 24-well culture plate, with fetal bovine serum added to the lower chamber as a chemoattractant. After 48 h, non-invading cells and the EC matrix were removed by a cotton swab. Invaded cells were stained with crystal violet and photographed. The inserts were treated with 10% acetic acid and absorbance was measured at 560 nm.

AR binding to ETS domain = molecular target: T1, AR binding to ETS domain (Homo sapiens, UniProt P11308)
T1 sequence (P11308 311-391 limits assumed): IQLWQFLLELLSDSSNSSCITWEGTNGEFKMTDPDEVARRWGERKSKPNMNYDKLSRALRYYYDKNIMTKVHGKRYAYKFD
Procedure: Beads were eluted by SDS loading buffer and blotted with anti-GST mAb specifically against GST-AR (FIG. 30).
The cDNAs and fragments are cloned into pFN19A vector per manufacturer's protocol. In vitro translated proteins are generated by a wheat germ expression system (Promega) and immobilized onto HaloLink magnetic beads. After washing, the conjugated beads are incubated with GST-AR fusion proteins in the presence or absence of peptides. The bound proteins are analyzed by SDS-PAGE and blotted with anti-GST mAb (Sigma).

ERG = molecular target: T2, ERG (Homo sapiens, UniProt P11308)
T2 sequence (P11308 1-479): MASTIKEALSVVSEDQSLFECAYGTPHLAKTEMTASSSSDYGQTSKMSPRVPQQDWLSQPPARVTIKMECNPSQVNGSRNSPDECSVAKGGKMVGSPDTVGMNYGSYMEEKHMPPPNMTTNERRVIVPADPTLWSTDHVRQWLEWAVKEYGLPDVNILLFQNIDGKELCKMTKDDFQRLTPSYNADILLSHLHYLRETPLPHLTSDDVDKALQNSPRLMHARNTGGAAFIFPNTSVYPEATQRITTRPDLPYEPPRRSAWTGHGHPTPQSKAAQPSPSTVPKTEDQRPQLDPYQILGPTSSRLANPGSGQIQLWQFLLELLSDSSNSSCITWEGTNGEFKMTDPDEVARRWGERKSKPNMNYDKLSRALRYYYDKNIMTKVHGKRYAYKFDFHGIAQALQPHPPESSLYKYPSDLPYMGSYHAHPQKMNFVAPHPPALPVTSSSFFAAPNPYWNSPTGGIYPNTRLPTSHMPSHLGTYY

VCaP [5] = assay: Cell invasion with TAT-peptides, VCaP; conditions: FIG. 39
Procedure: as §2

[6] = system: TMPRSS2 and ERG loci in DU145 cells
[7] = system: TMPRSS2 and ERG loci in LNCaP cells
[8] = system: TMPRSS2-ERG fusion transcript in LNCaP cells; conditions: DHT 10 nM, 12 hours
Procedure: It was investigated whether stimulation with androgen (e.g. DHT) could create gene fusions by coupling androgen stimulation with an agent that causes DNA double strand breaks. LNCaP cells were hormone depleted, followed by stimulation with DHT (10 nM, 12 hours), irradiation (1 or 3 Gy) and clonal expansion of single cells in 96 well plates using flow sorting. The presence of the TMPRSS2-ERG fusion transcript was determined using quantitative reverse-transcription PCR (QRT-PCR) with both SYBR green and TaqMan assays spanning the chimeric region.

[9] = molecular target: T3, ETS domain stretch RALRYYYDK (Arg367 to Lys375 in ERG), R367→K (Homo sapiens, UniProt P11308, R367K); format: binding
T3 construct: used a series of overlapping 19 amino acids segments of ETS domain; made in house
T3 sequence (P11308 311-391 R367K): T1 sequence (P11308 311-391 limits assumed) with R57K
From the text: Interactive phage clones were sequenced and analyzed using bioinformatics approaches to identify consensus peptide sequence. […] The domains within ERG that mediate the binding of isolated phage clones were mapped using a panel of ERG deletion mutants expressed as HaloTag fusion protein. A total of 6 domains, namely N-term, ETS, CAE, PNT, CD, and CTD (Carrere et al., Oncogene, 1998. 16(25): p. 3261-8), were cloned and expressed in TNT SP6 wheat germ system. Without purification, the expression reactions were coated on HaloLink Array system and incubated with individual phage clones. The interaction signal was detected by Cy3-labled anti-M13 antibody, which is specifically directed against the phage capsid protein (FIG. 28). […] Further mapping studies used a series of overlapping 19 amino acids segments of ETS domain specifically localized the binding site to a 9 amino-acids conserved stretch […] (SEQ ID NO. 1) corresponding to the residues Arg^367 to Lys^375 in ERG (FIG. 29). The conserved region of the amino acids specifically involved in peptide binding was then located.

[10] = system: RWPE-1 cells transduced with ERG adenovirus; assay: ERG-mediated invasion of RWPE-1 cells transduced with ERG adenovirus; format: cell-based; conditions: TAT-tagged peptides, 2 μM, 48 hours, RWPE-1 with ERG adenovirus
Procedure: as §1
To investigate the ability of ERG-binding peptides to block ERG-mediated invasion, the prostate cell lines RWPE-1 transduced with ERG or LACZ adenovirus were incubated with TAT-tagged peptides. […] The relative number of invaded cells was also quantified by colorimetric assays.

Molecule	DU145 invasion (DU145)	VCaP proliferation (VCaP [3])	cell invasion driven by ERG (VCaP [4])	ERG interactome (through ETS domain) (AR binding to ETS domain)	ERG transcription activities (ERG)	VCaP invasion (VCaP [5])	also measured
UGG UCA GAG AGA AGC AAU A [wild-type ERG siRNA]							TMPRSS2-ERG expression [1]: did not affect
TAT-LSFGSLP: TAT linked to LSFGSLP (SEQ ID NO: 2) (not fully specified; left off: small tags and cut ends)	not	inhibits	attenuated	blocked	blocked	inhibit	DNA damage in VCaP (VCaP [2]): inhibit
C[C@]12CCC(=O)C[C@@H]1CC[C@@H]1[C@@H]2CC[C@]2(C)[C@@H](O)CC[C@@H]12 [DHT, Dihydrotestosterone]							proximity between TMPRSS2 and ERG [6]: not observed; proximity between the TMPRSS2 and ERG loci [7]: induced proximity; clones harboring TMPRSS2-ERG fusion transcripts ([8]; then 1 Gy irradiation): 2.3%; clones harboring TMPRSS2-ERG fusion transcripts ([8]; then 3 Gy irradiation): 25%
TAT-LPPYLFT: TAT linked to LPPYLFT (SEQ ID NO: 45) (not fully specified; left off: small tags and cut ends)	not	inhibited	attenuated	blocked	blocked	inhibit	
CC(C)C[C@H](NC(=O)[C@H](CO)NC(=O)CNC(=O)[C@H](Cc1ccccc1)NC(=O)[C@H](CO)NC(=O)[C@@H](N)CC(C)C)C(=O)N1CCC[C@H]1C(=O)O [LSFGSLP] (H-LSFGSLP-OH)							phage peptide binding after single amino acid substitution R367→K [9]: completely abolished
LPPYLFT							ERG-driven invasion [10]: blocked
